Source: article PMC2954223, “Structure of a tryptophanyl-tRNA synthetase containing an iron–sulfur cluster” (Acta Crystallographica Section F: Structural Biology and …, 2010)

Assays:
TmTrpRS (TM0492) [1] = biological target: T1, TmTrpRS (TM0492) (Thermotoga maritima, UniProt Q9WYW2); assay: X-ray crystal structure, […] Å; assay type: binding; conditions: active site (Rossmann-fold domain); endogenously bound, not added; crystallised at pH 6.5, 277 K
T1 construct: gene trpS; full-length with noncleavable N-terminal tag MGSDKIHHHHHH (kept in crystal), expressed in E. coli DL41; native TTG start codon lies in forward primer after the tag; model residues 0-328, 113-119 disordered; homodimer
T1 sequence (Q9WYW2 1-328): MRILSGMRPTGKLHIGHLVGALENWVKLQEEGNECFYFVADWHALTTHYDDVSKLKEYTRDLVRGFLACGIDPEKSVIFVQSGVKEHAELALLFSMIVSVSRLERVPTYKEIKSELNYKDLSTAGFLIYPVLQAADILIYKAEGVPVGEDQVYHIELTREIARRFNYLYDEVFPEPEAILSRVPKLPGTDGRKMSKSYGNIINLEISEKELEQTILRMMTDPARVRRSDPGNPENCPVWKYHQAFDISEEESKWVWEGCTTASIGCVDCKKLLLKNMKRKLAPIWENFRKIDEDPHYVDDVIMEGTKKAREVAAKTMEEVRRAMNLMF

TmTrpRS (TM0492) [2] = biological target: T1, TmTrpRS (TM0492); assay: X-ray crystal structure, […] Å; X-ray fluorescence scan; mass spectrometry; assay type: binding; conditions: TAB domain; chelated by Cys236, Cys259, Cys266, Cys269; co-purified; crystallised at pH 6.5, 277 K

Structure (SMILES)	X-ray crystal structure, 2.50 Å (TmTrpRS (TM0492) [1])	X-ray crystal structure, 2.50 Å; X-ray fluorescence scan; mass spectrometry (TmTrpRS (TM0492) [2])
N[C@@H](Cc1c[nH]c2ccccc12)C(=O)O [L-tryptophan]	the structure revealed a bound L-tryptophan molecule in the Trp-binding pocket of the active site	–
[S]12[Fe]3[S]4[Fe]1[S]1[Fe]2[S]3[Fe]41 [[4Fe–4S] cluster]	–	The [4Fe–4S] cluster is chelated by the side chains of Cys236, Cys259, Cys266 and Cys269
